Tests used:
[1] = target: T1, human LPA1 (Homo sapiens, UniProt Q92633); experiment: Functional calcium mobilization assay; type: cell-based; conditions: 24 h pre-incubation prior to LPA addition; read-out: Functional LPA1 Ca^+2 mobilization
T1 construct: expressed in transfected cells
Method: Intracellular calcium was monitored with Fluo-4 (Molecular Devices). Dye was made up in HBSS with 0.1% (w/v) BSA and 2.5 mM probenecid. Plates were read using a FlexStation 3 (Molecular Devices, Sunnyvale, CA). Calcium response was generated by the simultaneous addition of the EC80 of LPA.
On the day of assay, media was removed and replaced with dye and 3× fresh compound in HBSS−/− with 0.1% BSA and incubated for 1 h.
30-min assay: Antagonists were added to plates after dye loading was complete at a 3× concentration in HBSS−/− with 0.1% BSA and incubated for 30 min.

[2] = tested on: rat OPCs; experiment: OPC differentiation assay (PDGF withdrawal, MBP+ oligodendrocytes); type: cell-based; conditions: PDGF removed, 3 days treatment, percent of T3 induced differentiation; read-out: EC50 of increase in differentiated MBP+ oligodendrocytes
Method: Given the expression of Lpar1 on OPCs, we wanted to know how direct, exogenous application of LPA would affect OPC differentiation. Using the same PDGF withdrawal paradigm to induce OPC differentiation, we added various concentrations of LPA to the culture media and quantified MBP^+ oligodendrocytes 3 days later.
Primary rat OPCs were isolated and cultured in the presence of PDGF. One day later, PDGF was removed and various doses of PIPE-791 were added to the cultures. These cultures were fixed 3 days post-PIPE-791 treatment and immunostained for MBP.
OPC isolation: For immunopanning purification of OPCs, cortical hemispheres were dissected from postnatal day 8 Sprague–Dawley rat pups. Tissue culture dishes were incubated overnight with goat IgG secondary antibodies to mouse (Jackson Laboratories, Bar Harbor, ME). Dishes were rinsed and incubated at room temperature with primary antibodies for Ran-2, GalC and O4 (gift from Jonah Chan lab). Rodent cortical hemispheres were minced and dissociated with papain (Thermo Fisher, Waltham, MA) for 1 h at 37°. After dissociation, cells were resuspended in a panning buffer (0.2% BSA in DPBS) and incubated at room temperature sequentially on three immunopanning dishes: Ran-2 and GalC were used for negative selection before positive selection with O4. […]

T1 sequence (Q92633 whole entry): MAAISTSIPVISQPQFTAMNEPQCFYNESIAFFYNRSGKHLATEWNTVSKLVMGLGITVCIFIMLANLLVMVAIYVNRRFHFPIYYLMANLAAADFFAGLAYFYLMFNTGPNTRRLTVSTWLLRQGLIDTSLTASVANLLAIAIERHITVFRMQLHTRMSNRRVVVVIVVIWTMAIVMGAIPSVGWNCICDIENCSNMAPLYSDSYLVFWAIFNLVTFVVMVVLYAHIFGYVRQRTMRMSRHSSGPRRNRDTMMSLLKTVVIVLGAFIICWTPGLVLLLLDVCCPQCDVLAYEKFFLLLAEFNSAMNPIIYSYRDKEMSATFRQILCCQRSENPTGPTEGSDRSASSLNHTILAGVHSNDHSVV

IC50 [1]: 9.9 nM
EC50 [2]: 108 nM
Compound: COc1ccc(NC(=O)N(c2ccccc2C(C)C)C2CCC(C(=O)O)CC2)c(OC(F)F)n1 (centres unmarked) [PIPE-791]
